22 molecules from patent US20090181986A1, “SUBSTITUTED HETEROCYCLIC COMPOUNDS” (priority 2007, published 2009) can be followed below.

One data set deals with hERG potassium channel (Homo sapiens, UniProt Q12809). In words: hERG screening assay (PatchXpress patch clamp, CHO cells).
The subject of a further data set is L-type calcium channel. Kind of data set: L-type calcium channel activity well-plate assay (IMR-32 cells, Ca-4 dye, FlexStation). Type of data set: cell-based, human. Here is the method: Cell Culture: IMR-32 (human neuroblastoma) cells were obtained from The American Type Culture Collection. The cells were maintained in MEM supplemented with 10% fetal bovine serum, 2 mM of L-glutamine, 100 IU/ml of penicillin, 50 μg/ml of streptomycin, 1% of sodium pyruvate, 1% of sodium bicarbonate and 1% of non-essential amino acid. […] Culture medium was changed every two days and cells were recultivated when they reached 70-80% confluent.
Assay: IMR-32 cells were seeded on a Microtest 96-well Assay Plate (BD FALCON™) at a density of 200,000 cells/well in 200 μl culture medium for overnight. The culture medium was removed, and replaced by 120 μl Ca-4 dye (MDS Analytical Technologies, Sunnyvale, Calif.) in HBSS (1× Hank's Balanced Salt solution plus 20 mM HEPES, pH 7.4) containing 2 mM probenecid. Cells were then incubated for 1 hour at 37° in incubator. Testing compounds were diluted from 5 μM-50 μM in HBSS, and 40 μl were added in cells before assay. […] The inhibition of L-type calcium channel activity by compounds was then calculated.

Sequence of hERG potassium channel (Q12809 whole entry): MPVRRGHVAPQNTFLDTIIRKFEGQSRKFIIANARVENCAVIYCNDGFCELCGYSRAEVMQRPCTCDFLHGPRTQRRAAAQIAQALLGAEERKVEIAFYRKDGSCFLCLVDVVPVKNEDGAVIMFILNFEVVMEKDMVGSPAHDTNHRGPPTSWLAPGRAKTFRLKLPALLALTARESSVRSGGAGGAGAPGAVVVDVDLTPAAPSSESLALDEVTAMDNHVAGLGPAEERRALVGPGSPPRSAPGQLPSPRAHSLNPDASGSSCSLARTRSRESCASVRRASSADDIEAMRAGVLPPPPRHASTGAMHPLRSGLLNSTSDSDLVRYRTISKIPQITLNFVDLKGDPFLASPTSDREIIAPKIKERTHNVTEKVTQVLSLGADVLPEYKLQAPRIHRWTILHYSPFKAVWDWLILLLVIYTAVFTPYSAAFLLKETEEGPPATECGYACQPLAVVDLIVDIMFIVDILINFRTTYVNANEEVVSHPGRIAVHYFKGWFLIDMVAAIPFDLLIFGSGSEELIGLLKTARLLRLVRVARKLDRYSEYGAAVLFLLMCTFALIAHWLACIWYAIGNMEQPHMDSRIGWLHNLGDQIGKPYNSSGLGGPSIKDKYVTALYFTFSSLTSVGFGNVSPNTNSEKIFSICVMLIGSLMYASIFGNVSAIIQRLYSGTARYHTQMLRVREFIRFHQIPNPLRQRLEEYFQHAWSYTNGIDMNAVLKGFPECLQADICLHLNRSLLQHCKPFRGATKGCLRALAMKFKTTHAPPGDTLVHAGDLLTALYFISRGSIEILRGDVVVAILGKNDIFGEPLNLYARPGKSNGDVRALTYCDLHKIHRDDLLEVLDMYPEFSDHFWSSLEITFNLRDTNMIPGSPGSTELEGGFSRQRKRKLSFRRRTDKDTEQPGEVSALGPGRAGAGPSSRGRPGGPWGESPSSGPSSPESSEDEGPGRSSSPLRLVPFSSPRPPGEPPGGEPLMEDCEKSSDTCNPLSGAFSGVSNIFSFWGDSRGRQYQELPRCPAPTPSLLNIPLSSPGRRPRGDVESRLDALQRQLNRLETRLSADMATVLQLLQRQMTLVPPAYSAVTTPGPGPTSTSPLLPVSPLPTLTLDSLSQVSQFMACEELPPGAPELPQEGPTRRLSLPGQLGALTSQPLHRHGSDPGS

`N#CC1=C(N)OC2=C(C(=O)CC(c3ccccc3)C2)C1c1ccco1` (stereo not drawn) [PT-104, 2-amino-4-(furan-2-yl)-5-oxo-7-phenyl-5,6,7,8-tetrahydro-4H-chromene-3-carbonitrile]: on hERG potassium channel, the “hERG Patch Clamp hERG % blk (1 μM test cmpd)” value turned out to be 18% and the “hERG Patch Clamp hERG % blk (10 μM test cmpd)” value amounted to 46%. Further, in the data set with L-type calcium channel, the “CaL Plate Assay % blk (1 μM test cmpd)” value was determined as 0% and the “CaL Plate Assay % blk (10 μM test cmpd)” value was 27%.

For `CC1=C(C(=O)OCc2ccccc2)C(c2cc3ccccc3o2)n2nnnc2N1` (stereo not drawn) [PT-045, benzyl 7-(benzofuran-2-yl)-5-methyl-4,7-dihydrotetrazolo[1,5-a]pyrimidine-6-carboxylate], at hERG potassium channel, the “hERG Patch Clamp hERG % blk (1 μM test cmpd)” value is listed as 10% and the “hERG Patch Clamp hERG % blk (10 μM test cmpd)” value turned out to be 70%. Further, in the data set with L-type calcium channel, the “CaL Plate Assay % blk (1 μM test cmpd)” value is listed as 0% and the “CaL Plate Assay % blk (10 μM test cmpd)” value turned out to be 98%.

In the case of `CC1=C(C(=O)OC(C)C)C(c2cccc3ccccc23)C(C(=O)OC(C)C)=C(C)N1` [PT-123, diisopropyl 2,6-dimethyl-4-(naphthalen-1-yl)-1,4-dihydropyridine-3,5-dicarboxylate], on hERG potassium channel, the “hERG Patch Clamp hERG % blk (1 μM test cmpd)” value was 10% and the “hERG Patch Clamp hERG % blk (10 μM test cmpd)” value came out at 30.5%. In addition, in the data set with L-type calcium channel, the “CaL Plate Assay % blk (1 μM test cmpd)” value is 59% and the “CaL Plate Assay % blk (10 μM test cmpd)” value was 92%.

Regarding `CCOC(=O)C1=C(C)NC(C)=C(C(=O)OCC)C1c1ccc(CC)s1` [PT-113, diethyl 4-(5-ethylthiophen-2-yl)-2,6-dimethyl-1,4-dihydropyridine-3,5-dicarboxylate], at hERG potassium channel, the “hERG Patch Clamp hERG % blk (1 μM test cmpd)” value was 11% and the “hERG Patch Clamp hERG % blk (10 μM test cmpd)” value was 57.5%. In the data set with L-type calcium channel, the “CaL Plate Assay % blk (1 μM test cmpd)” value was 18% and the “CaL Plate Assay % blk (10 μM test cmpd)” value was determined as 93%.

As to `CCOC(=O)C1=C(C)NC(C)=C(C(=O)OCC)C1c1sc2ccccc2c1C` [PT-116, diethyl 2,6-dimethyl-4-(3-methylbenzo[b]thiophen-2-yl)-1,4-dihydropyridine-3,5-dicarboxylate], on hERG potassium channel, the “hERG Patch Clamp hERG % blk (1 μM test cmpd)” value worked out at 22.9% and the “hERG Patch Clamp hERG % blk (10 μM test cmpd)” value was 66%. For the same molecule, in the data set with L-type calcium channel, the “CaL Plate Assay % blk (1 μM test cmpd)” value was determined as 6% and the “CaL Plate Assay % blk (10 μM test cmpd)” value was determined as 32%.

For the molecule `CCOC(=O)C1=C(C)NC(C)=C(C(=O)OCC)C1c1cc2ccccc2o1` [PT-122, diethyl 4-(benzofuran-2-yl)-2,6-dimethyl-1,4-dihydropyridine-3,5-dicarboxylate], on hERG potassium channel, the “hERG Patch Clamp hERG % blk (1 μM test cmpd)” value was determined as 15.5% and the “hERG Patch Clamp hERG % blk (10 μM test cmpd)” value is 55%. Besides, in the data set on L-type calcium channel, the “CaL Plate Assay % blk (1 μM test cmpd)” value is 10% and the “CaL Plate Assay % blk (10 μM test cmpd)” value came out at 63%.

`CCOC(=O)C1=C(C)NC(C)=C(C(=O)OCC)C1c1cc2ccccc2s1` [PT-114, diethyl 4-(benzo[b]thiophen-2-yl)-2,6-dimethyl-1,4-dihydropyridine-3,5-dicarboxylate]: on hERG potassium channel, the “hERG Patch Clamp hERG % blk (1 μM test cmpd)” value stood at 27.5% and the “hERG Patch Clamp hERG % blk (10 μM test cmpd)” value was 86.5%. In the data set on L-type calcium channel, the “CaL Plate Assay % blk (1 μM test cmpd)” value is given as 8% and the “CaL Plate Assay % blk (10 μM test cmpd)” value was 15%.

For the molecule `CCOC(=O)C1=C(C)NC2=C(C(=O)CCC2)C1c1ccco1` (stereo not drawn) [PT-153, ethyl 4-(furan-2-yl)-2-methyl-5-oxo-1,4,5,6,7,8-hexahydroquinoline-3-carboxylate], at hERG potassium channel, the “hERG Patch Clamp hERG % blk (1 μM test cmpd)” value is 10.5% and the “hERG Patch Clamp hERG % blk (10 μM test cmpd)” value was 13.5%. Also, in the data set on L-type calcium channel, the “CaL Plate Assay % blk (1 μM test cmpd)” value worked out at 3% and the “CaL Plate Assay % blk (10 μM test cmpd)” value is 44%.

With `CC1=C(C(=O)OCc2ccccc2)C(c2c3ccccc3cc3ccccc23)n2nnnc2N1` (stereo not drawn) [PT-039, benzyl 7-(anthracen-9-yl)-5-methyl-4,7-dihydrotetrazolo[1,5-a]pyrimidine-6-carboxylate], on hERG potassium channel, the “hERG Patch Clamp hERG % blk (1 μM test cmpd)” value was found to be 10% and the “hERG Patch Clamp hERG % blk (10 μM test cmpd)” value was found to be 27.5%. In the data set on L-type calcium channel, the “CaL Plate Assay % blk (1 μM test cmpd)” value is recorded as 2% and the “CaL Plate Assay % blk (10 μM test cmpd)” value was determined as 0%.

For `CC1=C(C(=O)N2CCC(c3ccc(C(=O)O)cc3)CC2)C(c2cccc3ccccc23)C2=C(CCCC2=O)N1` (stereo not drawn) [PT-173, 4-(1-(2-methyl-4-(naphthalen-1-yl)-5-oxo-1,4,5,6,7,8-hexahydroquinoline-3-carbonyl)piperidin-4-yl)benzoic acid], on hERG potassium channel, the “hERG Patch Clamp hERG % blk (1 μM test cmpd)” value was 12% and the “hERG Patch Clamp hERG % blk (10 μM test cmpd)” value is 37%. In the data set on L-type calcium channel, the “CaL Plate Assay % blk (1 μM test cmpd)” value was found to be 0% and the “CaL Plate Assay % blk (10 μM test cmpd)” value is on record as 26%.

`N#CC1=C(N)OC2=C(C(=O)CCC2)C1c1ccsc1` (stereo not drawn) [PT-100, 2-amino-5-oxo-4-(thiophen-3-yl)-5,6,7,8-tetrahydro-4H-chromene-3-carbonitrile]: at hERG potassium channel, the “hERG Patch Clamp hERG % blk (1 μM test cmpd)” value worked out at 10% and the “hERG Patch Clamp hERG % blk (10 μM test cmpd)” value amounted to 16.5%. For the same molecule, in the data set on L-type calcium channel, the “CaL Plate Assay % blk (1 μM test cmpd)” value is recorded as 0% and the “CaL Plate Assay % blk (10 μM test cmpd)” value was 0%.

As to `CC1=C(C(=O)OC(C)C)C(c2ccc(Br)s2)C(C(=O)OC(C)C)=C(C)N1` [PT-124, diisopropyl 4-(5-bromothiophen-2-yl)-2,6-dimethyl-1,4-dihydropyridine-3,5-dicarboxylate], on hERG potassium channel, the “hERG Patch Clamp hERG % blk (1 μM test cmpd)” value was determined as 11.5% and the “hERG Patch Clamp hERG % blk (10 μM test cmpd)” value amounted to 66%. Also, in the data set with L-type calcium channel, the “CaL Plate Assay % blk (1 μM test cmpd)” value turned out to be 10% and the “CaL Plate Assay % blk (10 μM test cmpd)” value is 52%.

Turning to `N#CC1=C(N)OC2=C(C(=O)CC(c3ccccc3)C2)C1c1cccs1` (stereo not drawn) [PT-101, 2-amino-5-oxo-7-phenyl-4-(thiophen-2-yl)-5,6,7,8-tetrahydro-4H-chromene-3-carbonitrile], at hERG potassium channel, the “hERG Patch Clamp hERG % blk (1 μM test cmpd)” value amounted to 19% and the “hERG Patch Clamp hERG % blk (10 μM test cmpd)” value turned out to be 67.5%. In the data set with L-type calcium channel, the “CaL Plate Assay % blk (1 μM test cmpd)” value worked out at 6% and the “CaL Plate Assay % blk (10 μM test cmpd)” value was determined as 47%.

As for `CC1=C(C(=O)OC2CCc3ccccc32)C(c2cccc3ccccc23)n2nnnc2N1` (stereo not drawn) [PT-062, 2,3-dihydro-1H-inden-1-yl 5-methyl-7-(naphthalen-1-yl)-4,7-dihydrotetrazolo[1,5-a]pyrimidine-6-carboxylate], the “hERG Patch Clamp hERG % blk (10 μM test cmpd)” value on hERG potassium channel is recorded as 14%. Further, the “CaL Plate Assay % blk (1 μM test cmpd)” value in the data set with L-type calcium channel is on record as 51%.

For the molecule `CC1=C(C(=O)OCc2ccccc2)C(c2cccc3ccccc23)n2nnnc2N1C` (stereo not drawn) [PT-195, benzyl 4,5-dimethyl-7-(naphthalen-1-yl)-4,7-dihydrotetrazolo[1,5-a]pyrimidine-6-carboxylate], at hERG potassium channel, the “hERG Patch Clamp hERG % blk (1 μM test cmpd)” value is given as 12.5% and the “hERG Patch Clamp hERG % blk (10 μM test cmpd)” value amounted to 49%. Besides, in the data set on L-type calcium channel, the “CaL Plate Assay % blk (1 μM test cmpd)” value came to 0% and the “CaL Plate Assay % blk (10 μM test cmpd)” value was 88%.

Turning to `N#CC1=C(N)NC2=C(C(=O)CCC2)C1c1ccc(Br)cc1` (stereo not drawn) [PT-095, 2-amino-4-(4-bromophenyl)-5-oxo-1,4,5,6,7,8-hexahydroquinoline-3-carbonitrile], at hERG potassium channel, the “hERG Patch Clamp hERG % blk (1 μM test cmpd)” value was determined as 10% and the “hERG Patch Clamp hERG % blk (10 μM test cmpd)” value was 24.5%. Also, in the data set with L-type calcium channel, the “CaL Plate Assay % blk (1 μM test cmpd)” value turned out to be 0% and the “CaL Plate Assay % blk (10 μM test cmpd)” value stood at 15%.

For `CCOC(=O)C1=C(C)NC(C)=C(C(=O)OCC)C1c1cccs1` [PT-111, diethyl 2,6-dimethyl-4-(thiophen-2-yl)-1,4-dihydropyridine-3,5-dicarboxylate], on hERG potassium channel, the “hERG Patch Clamp hERG % blk (1 μM test cmpd)” value is on record as 11.5% and the “hERG Patch Clamp hERG % blk (10 μM test cmpd)” value is 48.5%. Moreover, in the data set with L-type calcium channel, the “CaL Plate Assay % blk (1 μM test cmpd)” value worked out at 75% and the “CaL Plate Assay % blk (10 μM test cmpd)” value was 79%.

In the case of `CCCC1=C(C(=O)OCC)C(c2ccsc2)C2=C(CC(c3ccccc3)CC2=O)N1` (stereo not drawn) [PT-149, ethyl 5-oxo-7-phenyl-2-propyl-4-(thiophen-3-yl)-1,4,5,6,7,8-hexahydroquinoline-3-carboxylate], at hERG potassium channel, the “hERG Patch Clamp hERG % blk (1 μM test cmpd)” value came to 46% and the “hERG Patch Clamp hERG % blk (10 μM test cmpd)” value turned out to be 90%. In the data set on L-type calcium channel, the “CaL Plate Assay % blk (1 μM test cmpd)” value amounted to 4% and the “CaL Plate Assay % blk (10 μM test cmpd)” value is 72%.

With `CCOC(=O)C1=C(C)NC(C)=C(C(=O)OCC)C1c1ccsc1` [PT-110, diethyl 2,6-dimethyl-4-(thiophen-3-yl)-1,4-dihydropyridine-3,5-dicarboxylate], in the data set with L-type calcium channel, the “CaL Plate Assay % blk (1 μM test cmpd)” value amounted to 86% and the “CaL Plate Assay % blk (10 μM test cmpd)” value was 88%.

With `CC1=C(C(=O)NCCCCc2ccccc2)C(c2ccsc2)C2=C(CCCC2=O)N1` (stereo not drawn) [PT-164, 2-methyl-5-oxo-N-(4-phenylbutyl)-4-(thiophen-3-yl)-1,4,5,6,7,8-hexahydroquinoline-3-carboxamide], in the data set with L-type calcium channel, the “CaL Plate Assay % blk (1 μM test cmpd)” value is recorded as 20% and the “CaL Plate Assay % blk (10 μM test cmpd)” value worked out at 77%.

Regarding `CC1=C(C(=O)O[C@@H](C)c2ccccc2)C(c2cccc3ccccc23)n2nnnc2N1` (stereo partly drawn) [PT-048, (S)-1-phenylethyl 5-methyl-7-(naphthalen-1-yl)-4,7-dihydrotetrazolo[1,5-a]pyrimidine-6-carboxylate], in the data set on L-type calcium channel, the “CaL Plate Assay % blk (1 μM test cmpd)” value is reported as 0% and the “CaL Plate Assay % blk (10 μM test cmpd)” value stood at 74%.

With `CC1=C(C(=O)OCC(F)(F)F)C(c2cccc3ccccc23)n2nnnc2N1` (stereo not drawn) [PT-014, 2,2,2-trifluoroethyl 5-methyl-7-(naphthalen-1-yl)-4,7-dihydrotetrazolo[1,5-a]pyrimidine-6-carboxylate], in the data set with L-type calcium channel, the “CaL Plate Assay % blk (1 μM test cmpd)” value amounted to 0% and the “CaL Plate Assay % blk (10 μM test cmpd)” value came out at 40%.
